{
  "source": "patent US20050238733A1",
  "about": "“Topical anesthesia of the urinary bladder” (priority 2000, published 2005)",
  "key": {"[1]": {"assay": "pKa and base-form fraction of local anesthetics in aqueous solution", "type": "physicochemical", "description": "The pKa is the pH at which 50% of the drug in an aqueous solution will be in the base form and 50% in the ion or charged form. As the pH of the solution falls, more of the drug converts into the ion form. Since the pH scale is a logarithmic scale, these changes are quite marked over a small pH range.\nThe pKa is the pH at which 50% of the drug in solution will be in the base form and 50% in the salt form. As the pH rises above the pKa, more of the drug will dissociate and convert into the free base non-ionic form. […] Local anesthetics and their pharmacology are discussed in detail in Remington's Pharmaceutical Sciences, A. Osol, ed., Mack Pub. Co., Easton, Pa. (16th ed. 1980) and the Merck Index (11th ed., 1989)."}, "[2]": {"assay": "not given", "remark": "listed apart in the source"}, "[3]": {"tested_on": "mast cells", "conditions": "low concentrations, opposite effect to inhibition; cited from earlier work"}},
  "data": [
    {"smiles": "CCN(CC)CC(=O)Nc1c(C)cccc1C", "note": "[lidocaine]", "values": [
      {"measurement": "fraction of drug in the base form", "setting": "[1]; pH 5.8", "result": 0.5, "unit": "%"},
      {"measurement": "fraction of drug in the base form", "setting": "[1]; pH 6.8", "result": 5, "unit": "%"},
      {"measurement": "peak blood levels of radiolabeled lidocaine", "setting": "anesthetized rabbits, intra-vesical, pH 8.1", "result": "800 CPM/0.1 ml of blood"},
      {"measurement": "tissue levels of radioactive labeled lidocaine in bladder mucosa", "setting": "live rabbit bladder, 45 minutes in situ, pH 8.45", "result": "declined rapidly to almost the same as at the pH levels below 8.0"},
      {"measurement": "peak tissue levels of radioactive labeled lidocaine in bladder mucosa", "setting": "live rabbit bladder, 45 minutes in situ, pH between 8.1 and 8.25", "result": "around 3,500,000 CPM/g of tissue"},
      {"measurement": "lidocaine levels compared with previously reported levels", "setting": "[2]; alkalinized intravesical lidocaine, serum", "result": "ten times higher"},
      {"measurement": "peak blood (serum) levels of lidocaine", "setting": "[2]; human volunteers, 4, 5 or 6 mg/kg 5% lidocaine intravesical with 8.4% sodium bicarbonate, pH 8.0, all subjects, within the first hour", "result": "0.5-2 ug/cc"},
      {"measurement": "mean peak concentration of lidocaine in blood", "setting": "[2]; human volunteers, at 30 minutes", "result": 1.06, "unit": "µg/mL"},
      {"measurement": "concentration at which lidocaine causes mast cells to release their histamine content", "setting": "[3]", "result": "< 1", "unit": "mmol"}
    ]}
  ]
}
